Measured values: the NIST ThermoML archive (doi:10.1016/j.fluid.2019.05.001)
Numbers after ± are expanded uncertainties.

Conditions: Crystal; DTA

Normal melting temperature: 73.00 ± 1 °C
SMILES: CCOC(=O)CCC[N+]1(C)CCCC1.[Br-] [1-(4-ethoxy-4-oxobutyl)-1-methylpyrrolidinium bromide]
